Test [1] has as its target T1, Probable nicotinate-nucleotide adenylyltransferase (Staphylococcus aureus (strain N315), UniProt P65502). Type of test: functional, Staphylococcus aureus subsp. aureus N315. As to conditions: read-out: IC50_Mean.
For test [2], the target named is T2, Sentrin-specific protease 1 (Homo sapiens, UniProt Q9P0U3).
T2 sequence (Q9P0U3 whole entry): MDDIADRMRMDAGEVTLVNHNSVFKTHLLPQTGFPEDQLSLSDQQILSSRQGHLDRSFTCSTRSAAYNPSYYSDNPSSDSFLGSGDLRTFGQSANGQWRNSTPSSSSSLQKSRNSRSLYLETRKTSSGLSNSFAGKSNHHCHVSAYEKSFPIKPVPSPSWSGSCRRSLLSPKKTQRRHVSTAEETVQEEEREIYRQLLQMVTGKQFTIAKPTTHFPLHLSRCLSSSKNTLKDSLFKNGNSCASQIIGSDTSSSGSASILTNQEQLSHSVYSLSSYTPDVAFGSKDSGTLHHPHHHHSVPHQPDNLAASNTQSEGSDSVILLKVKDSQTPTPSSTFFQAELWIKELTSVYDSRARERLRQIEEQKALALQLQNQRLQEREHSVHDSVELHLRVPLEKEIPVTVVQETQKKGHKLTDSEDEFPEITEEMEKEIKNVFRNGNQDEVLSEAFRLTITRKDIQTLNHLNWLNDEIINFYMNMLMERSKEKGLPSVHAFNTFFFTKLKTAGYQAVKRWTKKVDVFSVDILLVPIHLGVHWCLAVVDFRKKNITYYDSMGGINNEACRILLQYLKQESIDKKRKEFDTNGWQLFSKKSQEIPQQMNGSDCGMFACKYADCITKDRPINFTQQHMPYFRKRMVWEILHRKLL
Description: Dose response confirmation of small molecule inhibitors of the catalytic domain of the SUMO protease, SENP1 in a FRET assay. As to conditions: read-out: IC50_Mean. Type of test: functional.

For test [3], the target named is T1, Probable nicotinate-nucleotide adenylyltransferase. In kind it is functional, Staphylococcus aureus subsp. aureus N315.
The target of test [4] is T2, Sentrin-specific protease 1. The experiment in a line: SENP1 catalytic domain blockers, concentration series – biochemical, kinetic FRET, dose response (AID 651697). In kind it is functional. As to conditions: read-out: IC50_Mean.
Test [5] relates to Cryptococcus neoformans. The experiment in a line: PubChem AID 686997. In kind it is functional, organism-based.
Test [6] relates to Cryptococcus neoformans. Description: Cryptococcus growth inhibition by alamar blue – cell lysis, cherry-picks, replicate tests, mechanism study for C. neoformans antifungal project, dose response (AID 686999). Type of test: functional, organism-based.
Test [7] concerns the target T3, Latent membrane protein 1 (Human herpesvirus 4 (strain B95-8), UniProt P03230).
T3 sequence (P03230 whole entry): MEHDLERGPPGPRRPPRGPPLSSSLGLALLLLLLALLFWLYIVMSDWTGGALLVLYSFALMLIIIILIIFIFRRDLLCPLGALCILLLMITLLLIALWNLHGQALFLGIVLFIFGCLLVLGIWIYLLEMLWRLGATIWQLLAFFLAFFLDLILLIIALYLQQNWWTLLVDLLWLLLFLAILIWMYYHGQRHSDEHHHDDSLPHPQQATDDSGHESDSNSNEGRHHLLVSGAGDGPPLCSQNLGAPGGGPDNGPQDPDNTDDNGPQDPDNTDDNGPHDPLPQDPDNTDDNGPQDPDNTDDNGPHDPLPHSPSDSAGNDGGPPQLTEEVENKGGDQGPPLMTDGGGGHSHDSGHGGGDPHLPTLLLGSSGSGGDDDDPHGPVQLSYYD
The experiment in a line: LMP1 TES1 pathway selectivity over dsRED control – imaging, HEK293T, dual-color eGFP/dsRED, cherry-picks, selectivity assay for LMP1 NF-kB inhibitor project, dose response (AID 588398). In kind it is functional, cell-based.

Test [8] is described as follows: Fluorescence-based cell-based high throughput dose response assay for inhibitors of the interaction of nucleotide-binding oligomerization domain containing 2 (NOD2) and the receptor-interacting serine-threonine kinase 2 (RIPK2). In kind it is functional. As to conditions: Homo sapiens.
Test [9] can be described thus: non-specific 3'UTR reporter inhibition in Clone20-Shn3RL – cell-based, Renilla luciferase, cherry-picked, counter-screen for Shn3 inhibitor project, dose response (AID 624133). In kind it is functional.
A short description of test [10]: loss of viability in HepG2 cells – cell-based, CellTiter-Glo, cherry-picked, cytotoxicity control for Shn3 inhibitor project, dose response (AID 624134). Type of test: functional.
The nature of test [11]: reduction of Shn3 3'UTR-driven luciferase in osteoblasts – cell-based, Clone20 osteoblasts, firefly luciferase, cherry-picked, dose response (AID 624132).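 Note: firefly luciferase luminescence from reporter carrying the Shn3 3'UTR in osteoblasts.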 Type of test: functional.
Test [12] has as its system HEK293. The experiment in a line: EBV LMP1 TES2 canonical NF-kB signalling blockers – cell-based, HEK293, luciferase, cherry-pick, dose response (AID 588343). In kind it is functional. As to conditions: Homo sapiens.
Test [13] concerns the target T4, Sentrin-specific protease 8 (Homo sapiens, UniProt Q96LD8).
T4 sequence (Q96LD8 whole entry): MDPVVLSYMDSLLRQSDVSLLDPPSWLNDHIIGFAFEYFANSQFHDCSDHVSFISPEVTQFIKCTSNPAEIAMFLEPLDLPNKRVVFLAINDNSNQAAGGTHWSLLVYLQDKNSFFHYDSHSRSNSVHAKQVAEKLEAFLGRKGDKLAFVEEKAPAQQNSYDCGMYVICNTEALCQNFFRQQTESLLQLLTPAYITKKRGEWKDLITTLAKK
Type of test: functional.

Test [14] addresses T4, Sentrin-specific protease 8. Type of test: functional. This is another data set of the same source.
A short description of test [15]: cells. In kind it is functional, cell-based. As to conditions: HEK-CNG.
For test [16], the target named is Galanin receptor type 3 (Homo sapiens, UniProt O60755). Description: Fluorescence-based cell-based primary high throughput dose response assay to identify antagonists of the Galanin Receptor 3 (GalR3). In kind it is functional.
Chain of Galanin receptor type 3 (O60755 whole entry): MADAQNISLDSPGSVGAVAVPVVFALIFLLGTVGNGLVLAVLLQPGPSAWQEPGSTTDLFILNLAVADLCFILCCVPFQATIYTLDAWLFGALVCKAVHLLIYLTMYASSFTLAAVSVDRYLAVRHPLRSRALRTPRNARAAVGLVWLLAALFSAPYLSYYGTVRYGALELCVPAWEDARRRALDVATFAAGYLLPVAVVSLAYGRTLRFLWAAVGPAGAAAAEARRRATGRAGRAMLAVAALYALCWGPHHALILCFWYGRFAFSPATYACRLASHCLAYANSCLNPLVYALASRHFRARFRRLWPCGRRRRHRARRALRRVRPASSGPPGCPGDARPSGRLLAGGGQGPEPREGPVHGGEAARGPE
Test [17] is described as follows: viability loss in HEK293T cells – cell-based, cherry-picks, cytotoxicity control for HIV Vif inhibitor project, dose response (AID 652208). In kind it is functional.
Test [18] concerns the target ADP-ribosylation factor GTPase-activating protein 1 (Rattus norvegicus, UniProt Q62848). The experiment in a line: Fluorescence polarization-based biochemical high throughput dose response screening assay to identify inhibitors of ADP-ribosylation factor GTPase activating protein 1 (ARFGAP1). Type of test: functional.

The text below walks through data of ChEMBL document CHEMBL1201862, “PubChem BioAssay data set” (2004).

Each structure is given as a SMILES string. Calls of active or inactive are those of the source. A value given as a limit tells only on which side of the number the result lay.
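Throughout, for EC50: target is galanin receptor GalR3 read with a cAMP biosensor in HEK293 cells.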

T1 sequence (P65502 whole entry): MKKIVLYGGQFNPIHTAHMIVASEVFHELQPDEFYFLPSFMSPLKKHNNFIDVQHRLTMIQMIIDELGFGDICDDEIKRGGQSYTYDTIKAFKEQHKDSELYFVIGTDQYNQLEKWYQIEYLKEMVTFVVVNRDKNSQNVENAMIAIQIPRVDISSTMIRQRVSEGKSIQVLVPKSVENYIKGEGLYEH
Chain of ADP-ribosylation factor GTPase-activating protein 1 (Q62848 whole entry): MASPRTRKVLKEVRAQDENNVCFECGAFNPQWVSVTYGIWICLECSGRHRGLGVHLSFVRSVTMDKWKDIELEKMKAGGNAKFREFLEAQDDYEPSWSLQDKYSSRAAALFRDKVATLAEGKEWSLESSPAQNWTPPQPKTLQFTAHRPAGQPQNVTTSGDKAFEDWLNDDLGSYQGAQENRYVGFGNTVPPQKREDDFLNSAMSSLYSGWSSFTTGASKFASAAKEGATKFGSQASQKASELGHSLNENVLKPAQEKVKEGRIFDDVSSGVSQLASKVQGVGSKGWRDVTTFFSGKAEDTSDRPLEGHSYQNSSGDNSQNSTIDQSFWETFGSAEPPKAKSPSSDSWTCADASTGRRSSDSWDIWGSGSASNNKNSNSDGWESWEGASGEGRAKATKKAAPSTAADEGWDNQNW

With `CCOC(=O)C1=C(C)N=c2sc(=Cc3cc(Cl)c(OCC(=O)O)c(Cl)c3)c(=O)n2C1c1cccc(OC)c1` (stereo not drawn), the IC50 in [1] is 19.2 µM (active); in test [2], 12.8 µM (active); in test [3], 5.18 µM (active); in test [4], 19.6 µM (active).
For the compound `COC(=O)C1=C(C)N(Cc2ccc(Cl)cc2)C(=S)NC1c1ccc(Br)cc1` (stereo not drawn), the AC50 was 27.3 µM (active) in test [5] and 29.1 µM (active) in test [6].
As to `O=C1C(=C(c2ccccc2)N2CCOCC2)Cc2ccccc21`, the AC50 in test [7] was 2.98 µM (active); in test [9] it was 5.97 µM (active); in test [10], 38.4 µM (active); in test [11], 0.999 µM (active); in test [12] it was 4.87 µM (active). In [8], the IC50 was 1.34 µM (active).
On to `O=C(CCS(=O)(=O)Cc1ccccc1F)N1CCc2ccccc2C1`, for which the IC50 is > 100 µM (inactive) in test [13] and 7.69 µM (active) in test [14].
As to `CC(=O)c1cn(CC(=O)NCCc2c[nH]c3ccccc23)c2ccccc12`, the EC50 in test [15] was > 29.9 µM (inactive). Moreover, the IC50 in test [16] was 2.7 µM (active).
Regarding `COc1ccc(-n2nc(C(=O)NCC(=O)Nc3cccc(Cl)c3)c3ccccc3c2=O)cc1OC`, in test [17], the AC50 is 17.4 µM (active). For the same compound, the IC50 in [18] was 83.9 µM (inactive).
